Test results: patent publication EP0020230A2, “p-Biphenyl-4-methyl-2-butenoic acids, process for their preparation, pharmaceutical compositions containing them and their use” (PIERRE FABRE S.A., priority 1979, dated 1980)
Like-named read-outs stand apart in the source and are kept apart here.

What was measured:
[1] = test system: injection de phényl benzoquinone; experiment: analgesic activity, phenylbenzoquinone test (Siegmund et al.); assay type: in vivo
Protocol: L'activité antalgique a été étudiée selon Siegmund et Coll.
Les composés sont administrés par voie orale 30 minutes avant l'injection de phényl benzoquinone.

[2] = acute oral toxicity (LD50, method of Miller and Tainter); settings: in vivo, mouse about 20 g, read-out: DL 50 voie orale
Excerpt: L'étude de la toxicité a été effectuée chez la souris conventionnelle pesant environ 20 grammes..
Les substances ont été administrées par voie orale, la DL 50 est calculée suivant la méthode de L.C. Miller et M.L. Tainter, Proc. Soc. Exper. Biol. Med., 1944, 57, 261.

[3] = test system: oedème provoqué par injection de carragénine dans la patte du rat; experiment: carrageenan-induced paw oedema (Winter, Risley, Nuss); assay type: in vivo; settings: oral, suspension in tween-water, 2 hours before the test, read-out: ED 50 (dose diminuant de 50 % le volume de la patte)
Excerpt: Les propriétés anti-inflammatoires ont été révélées par le test de l'oedème provoqué par injection de carragénine dans la patte du rat selon la technique de C. Winter, E. Risley, et G. Nuss. Proc. Soc. Exper. Biol. Med., 1962, 111, 544-547.
Les produits ont été administrés par voie orale en suspension dans le mélange tween-eau 2 heures avant l'expérimentation.

[4] = test system: granulome aux pellets de coton; experiment: cotton pellet granuloma (Meier, Schuler, Desaulles); assay type: in vivo; settings: 120 h; dose from which a clear reduction is seen; results read after 5 days; read-out: réduction nette du poids du granulome à partir de
Protocol: Les résultats obtenus sur le granulome aux pellets de coton selon la technique de R. Meier, Schuler et Desaulles - Experientia 1950, 6, 469, permettent de mettre en évidence une réduction nette du poids du granulome à partir de 10 mg/kg pour le F 1920 et le F 2073.
Les résultats sont relevés au bout de 5 jours et aucune modification n'est observée, comparativement aux témoins, en ce qui concerne

[5] = oral, 30 minutes before injection of phenylbenzoquinone, read-out: DE 50 (the source's name)

Row | Compound | ED50 [1, 5] [mg/kg] | LD50 [2] [mg/kg] | ED50 [3] [mg/kg] | minimal effective dose [4] [mg/kg] | ED50 ([1]; po, read-out: DE 50) [mg/kg]
1 | O=C(OCC(O)CO)c1ccccc1Nc1ccnc2cc(Cl)ccc12 (stereo not drawn) [Glafénine, reference compound] | 36 |  |  |  | 
2 | CC(/C=C/c1ccc(-c2ccccc2Cl)cc1)C(=O)O (stereo not drawn) [F 2073, acide trans orthochlorophényl-4' phényl-4 méthyl-2 buten-3 oïque] | 7 | 750 | 15 | ≥ 10 | 
3 | CC(=O)Oc1ccccc1C(=O)O [Acide acétyl salicylique, reference compound] |  |  |  |  | 100
4 | CC(/C=C/c1ccc(-c2ccccc2)cc1)C(=O)O (stereo not drawn) [F 1920, acide trans p-biphényl-4, méthyl-2 buten-3 oïque] | 10 | 500 | 25 | ≥ 10 | 
5 | CC(/C=C/c1ccc(-c2ccccc2F)cc1)C(=O)O (stereo not drawn) [Acide trans orthofluorophényl-4' phényl-4 méthyl-2 buten-3 oïque] | 5 | 1000 |  |  | 
